Measured values published in patent publication US5576310A, “11-benzaldoxime-17β-methoxy-17α-methoxymethyl-estrasdiene derivatives, methods for their production and pharmaceuticals containing such compounds” (Jenapharm GmbH, priority 1994, dated 1996).

How the values were obtained:
glucocorticoid receptor = target: T1, glucocorticoid receptor (Rattus norvegicus, UniProt P06536); test: Receptor bonding affinity: competitive bonding of 3H-dexamethasone and test compound to glucocorticoid receptor in thymus cytosol of the adrenalectomized rat; assay type: binding; details: dexamethasone = 100%; tracer 3H-dexamethasone 20 nM; 18 hours at 0-4 °C; quotient of IC50 values x 100%
T1 construct: receptors in the cytosol from animal target organs; from tissue; host or cells: thymus cytosol of adrenalectomized rat
T1 sequence (P06536 1-795): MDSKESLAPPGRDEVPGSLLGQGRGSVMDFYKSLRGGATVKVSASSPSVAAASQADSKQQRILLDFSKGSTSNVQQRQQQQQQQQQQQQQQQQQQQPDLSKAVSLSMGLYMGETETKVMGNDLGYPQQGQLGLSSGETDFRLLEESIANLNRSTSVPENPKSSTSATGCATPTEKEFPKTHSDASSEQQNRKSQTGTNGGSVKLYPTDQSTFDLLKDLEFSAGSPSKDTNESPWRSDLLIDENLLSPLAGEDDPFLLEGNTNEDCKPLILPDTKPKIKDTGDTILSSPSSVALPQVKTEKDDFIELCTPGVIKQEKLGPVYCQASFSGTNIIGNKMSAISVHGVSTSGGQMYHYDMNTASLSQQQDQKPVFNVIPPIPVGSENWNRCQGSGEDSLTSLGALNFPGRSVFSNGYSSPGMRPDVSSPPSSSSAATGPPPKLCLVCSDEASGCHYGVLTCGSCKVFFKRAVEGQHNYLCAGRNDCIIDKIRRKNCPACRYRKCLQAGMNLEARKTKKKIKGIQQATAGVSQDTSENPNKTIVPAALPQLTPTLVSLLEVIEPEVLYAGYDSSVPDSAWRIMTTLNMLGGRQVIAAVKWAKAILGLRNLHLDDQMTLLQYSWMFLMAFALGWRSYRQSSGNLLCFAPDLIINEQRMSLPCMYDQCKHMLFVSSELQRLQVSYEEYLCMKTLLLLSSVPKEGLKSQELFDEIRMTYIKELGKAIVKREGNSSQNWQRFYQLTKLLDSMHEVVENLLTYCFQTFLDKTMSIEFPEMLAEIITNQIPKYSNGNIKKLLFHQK
Experimental: Measurement of bonding affinity for receptors
Receptor bonding affinity was determined by competitive bonding of a specifically binding ^3 H labelled hormone (tracer) and the compound to be tested to receptors in the cytosol from animal target organs. It was tried to obtain receptor saturation and a balanced reaction. The following incubation conditions were selected:
Glucocorticoid receptor: thymus cytosol of the adrenalectomized rat, thymi kept at -30° C., buffer: TED. Tracer: ^3 H-dexamethasone, 20 nM; reference substance: dexamethasone.
After an incubation period of 18 hours at 0°-4° C., bonded and free steroid was separated by mixing in active carbon/dextrane (1%/0.1%), centrifuging off and measuring the bonded ^3 H activity in the supernatant.
The IC50 for the compound to be tested and for the reference substance were determined from measurements in series of concentrations.

[1] = test system: early gravidity in the rat; test: Inhibition of early gravidity (early abortive effect) in the rat after subcutaneous application from the 5th to 7th day of pregnancy; assay type: in vivo; details: for complete gravidity inhibition (N*/N) / complete gravidity inhibition (%) / ED 50 (complete gravidity inhibition): d5-d7; for complete gravidity inhibition (N*/N): N* females not pregnant / N inseminated females; for complete gravidity inhibition (N*/N) / complete gravidity inhibition (%): empty uteri; for ED 50 (complete gravidity inhibition): s.c., graphic determination
Experimental: Early abortive effect of RU 486 and J 914 (Example 1) and
J 900 (Example 2) in the rat after subcutaneous
application from the 5th to 7th day of pregnancy (dose
0.2 ml/animal/day in benzylbenzoate/castor oil
N number of inseminated females
N* number of females not pregnant
^++ graphic determination
Inhibition of early gravidity in the rat:
Female rats are mated in the pro-oestrus. If semen is found in the vaginal smear on the next day, this day is counted as day 1 (=d1) of the gravidity. Treatment with the test substance or vehicle is applied on d5-d7, autopsy is carried out on d9. The substances are injected subcutaneously in 0.2 ml of vehicle (benzyl benzoate/castor oil 1+4).

| Relative molar bonding affinity (RBA) for the glucocorticoid receptor (glucocorticoid receptor) | SMILES | complete gravidity inhibition (N*/N) ([1]; 0.3 mg/animal/day s.c.) | complete gravidity inhibition (%) ([1]; 0.3 mg/animal/day s.c.) | complete gravidity inhibition (N*/N) ([1]; 1.0 mg/animal/day s.c.) | complete gravidity inhibition (%) ([1]; 1.0 mg/animal/day s.c.) | inhibition capability of nidation, in words ([1]; as compared to RU 486) | ED 50 (complete gravidity inhibition) [1] | complete gravidity inhibition (N*/N) ([1]; 0.1 mg/animal/day s.c.) | complete gravidity inhibition (%) ([1]; 0.1 mg/animal/day s.c.) | complete gravidity inhibition (N*/N) ([1]; 3.0 mg/animal/day s.c.) | complete gravidity inhibition (%) ([1]; 3.0 mg/animal/day s.c.) |
| --- | --- | --- | --- | --- | --- | --- | --- | --- | --- | --- | --- |
| 39% | CN(C)c1ccc([C@H]2C[C@]3(C)[C@@H](CC[C@]3(O)CCCO)[C@@H]3CCC4=CC(=O)CCC4=C32)cc1 [ZK 98299, reference compound] |  |  |  |  |  |  |  |  |  |  |
| 66% | CCOC(=O)ON=Cc1ccc([C@H]2C[C@@]3(C)[C@@H](CC[C@]3(COC)OC)[C@@H]3CCC4=CC(=O)CCC4=C32)cc1 [Example 2, 11β-[4-(ethoxycarbonyloximinomethyl)phenyl]-17β-methoxy-17α-methoxymethyl-estra-4,9-diene-3-on] | 0/5 | 0% | 9/10 | 90% | superior inhibition capability of nidation | 0.6 mg/animal/day |  |  |  |  |
| 73% | COC[C@]1(OC)CC[C@H]2[C@@H]3CCC4=CC(=O)CCC4=C3[C@@H](c3ccc(C=NOC(C)=O)cc3)C[C@@]21C [Example 1, 11β-[4-(acetyloximinomethyl)phenyl]-17β-methoxy-17α-methoxymethyl-estra-4,9-diene-3-on] | 1/5 | 20% | 7/10 | 70% |  | 0.6 mg/animal/day | 0/6 | 0% | 5/5 | 100% |

| SMILES | Relative molar bonding affinity (RBA) for the glucocorticoid receptor (glucocorticoid receptor) | complete gravidity inhibition (N*/N) ([1]; 0.3 mg/animal/day s.c.) | complete gravidity inhibition (%) ([1]; 0.3 mg/animal/day s.c.) | complete gravidity inhibition (N*/N) ([1]; 1.0 mg/animal/day s.c.) | complete gravidity inhibition (%) ([1]; 1.0 mg/animal/day s.c.) | inhibition capability of nidation, in words ([1]; as compared to RU 486) | ED 50 (complete gravidity inhibition) [1] | complete gravidity inhibition (N*/N) ([1]; 0.1 mg/animal/day s.c.) | complete gravidity inhibition (%) ([1]; 0.1 mg/animal/day s.c.) | complete gravidity inhibition (N*/N) ([1]; 3.0 mg/animal/day s.c.) | complete gravidity inhibition (%) ([1]; 3.0 mg/animal/day s.c.) |
| --- | --- | --- | --- | --- | --- | --- | --- | --- | --- | --- | --- |
| CC#C[C@]1(O)CC[C@H]2[C@@H]3CCC4=CC(=O)CCC4=C3[C@@H](c3ccc(N(C)C)cc3)C[C@@]21C [RU 486, reference compound] | 685% | 0/5 | 0% | 2/5 | 40% |  | 1.1 mg/animal/day |  |  | 5/5 | 100% |
